Source: patent US6096874A (Board of Regents, the University of Texas System, priority 1995, dated 2000)
Like-named read-outs stand apart in the source and are kept apart here.

Experiments:
estrogen receptor [1] = target: T1, estrogen receptor (Sus scrofa, UniProt Q29040); settings: for RBA (IC50 ratio between tamoxifen and competitor): Table 7, tamoxifen printed as 1; for Enhancement of estrogen receptor binding affinity: compared to tamoxifen
T1 sequence (Q29040 1-595): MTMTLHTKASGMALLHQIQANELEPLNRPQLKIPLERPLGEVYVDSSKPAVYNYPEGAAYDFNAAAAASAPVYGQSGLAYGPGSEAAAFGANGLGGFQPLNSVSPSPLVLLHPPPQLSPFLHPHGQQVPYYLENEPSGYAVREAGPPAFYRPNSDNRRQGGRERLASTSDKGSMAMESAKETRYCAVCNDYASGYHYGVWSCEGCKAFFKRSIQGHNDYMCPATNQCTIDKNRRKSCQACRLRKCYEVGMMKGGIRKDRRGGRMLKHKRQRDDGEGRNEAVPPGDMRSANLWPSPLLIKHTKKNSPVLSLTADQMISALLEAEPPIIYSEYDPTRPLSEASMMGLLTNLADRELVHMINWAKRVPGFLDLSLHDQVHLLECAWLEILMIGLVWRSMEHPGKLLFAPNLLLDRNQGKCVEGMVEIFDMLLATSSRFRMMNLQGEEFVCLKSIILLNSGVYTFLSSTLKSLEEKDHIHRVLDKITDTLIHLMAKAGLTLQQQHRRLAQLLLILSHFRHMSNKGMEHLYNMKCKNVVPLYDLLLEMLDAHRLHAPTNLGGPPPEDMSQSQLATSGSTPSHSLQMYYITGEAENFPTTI
Protocol: (§1) A previously reported procedure was modified by the inventors and used for this purpose.^10,11 TEA buffer was used by the Inventors for tissue preparation.
(§2) Briefly, uteri (90 gm) were obtained from immature domestic swine (15 kg) was homogenized in Tris buffer (10 mM, pH 7.4) (1 uterus/180 ml), which contained EDTA (1.5 mM) and sodium Azide (3 mM). The homogenate was centrifuged at 100,000 g for 1 hour at 4° C. Uteri cytosol (contains 2% of protein from corresponding uterus tissue) were then pretreated with dextran-coated charcoal as described.^10 Protein concentrations were determined according to the method of Lowry et al.^12
(§3) *The relative binding affinity (RBA) for the pig uteri estrogen receptor

MCF7 cells = assay: MCF7 breast tumor cell growth inhibition, 72 h, MTT tetrazolium dye assay; format: cell-based, human; settings: for Tumor cell inhibition (in words) / Potency against MCF7 compared with tamoxifen: 72 h; for RP (relative potency): tamoxifen = 100
Protocol: The MCF7 cell line is a human tumor cell line. This cell line was cultured in MEM (Eagles) media in a 5% CO^2 atmosphere with 10% fetal calf serum that had been washed twice with dextran coated charcoal to reduce endogenous estrogen levels. The media was supplemented with 1 mM sodium pyruvate and 100 μm non-essential amino acids. The cell line was screened routinely for myoplasma contamination using the GenProbe kit (Fisher). Cells were trypsinized and plated at a density of 5,000 cells/well in 96 well microtiter plates and allowed to attach and recover for 24 hours.
The media was removed by aspiration and replaced with filter sterilized drug (concentration from 10^-4 M to 10^-5 M) in media. The cells were incubated for 72 hours and then stained using the mTT tetrazolium dye assay of Mosmann^36 except that after the media was removed, the blue formazan product was solubilized in 50 μl/well DMSO.

estrogen receptor [2] = target: T2, estrogen receptor (Homo sapiens, UniProt P03372); settings: cited from earlier work; for Estrogen receptor binding / detection potency (in words): compared to tamoxifen
T2 sequence (P03372 1-595): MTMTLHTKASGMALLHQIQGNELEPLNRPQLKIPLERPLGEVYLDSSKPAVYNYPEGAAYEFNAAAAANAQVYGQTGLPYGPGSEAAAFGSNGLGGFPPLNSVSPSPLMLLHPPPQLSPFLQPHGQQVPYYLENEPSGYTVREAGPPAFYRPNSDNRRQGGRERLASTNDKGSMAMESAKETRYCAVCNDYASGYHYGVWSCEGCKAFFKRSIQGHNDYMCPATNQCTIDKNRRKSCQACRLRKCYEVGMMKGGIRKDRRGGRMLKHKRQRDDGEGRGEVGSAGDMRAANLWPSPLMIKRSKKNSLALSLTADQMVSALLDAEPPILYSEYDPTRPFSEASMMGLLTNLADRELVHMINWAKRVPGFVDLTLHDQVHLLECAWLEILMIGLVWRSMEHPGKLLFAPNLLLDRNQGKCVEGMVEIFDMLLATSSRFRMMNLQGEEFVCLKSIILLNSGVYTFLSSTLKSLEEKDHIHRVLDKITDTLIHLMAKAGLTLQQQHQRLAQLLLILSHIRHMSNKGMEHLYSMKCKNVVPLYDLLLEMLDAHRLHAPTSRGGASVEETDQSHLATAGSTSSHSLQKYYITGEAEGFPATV

[3] = compared to tamoxifen; cited from earlier work
in vivo = assay: in vivo; parameters: species or system rat; settings: compared with DTPA-Tamoxifen and DTPA-Vitamin A conjugates
Protocol: In animal tissue distribution studies, each rate was given 8.9 μCi (0.15 ml) tracer intravenously. The tumor-bearing rats were killed at 1, 3, 6 and 24 h. […] The amount of DES given should occupy tumor estrogen receptor sites. The methods for inducing tumors in rats was as described by those of skill in the art (radiology). […]
Female Fisher 344 rats (250-275 g) (Harlan, Inc., Indianapolis, Ind.) were inoculated with mammary tumor cells using the 13762 tumor cell line (s.c. 10^5 cells/rat). After 14 days, a tumor size of 1-2 cm was observed. For ^131 I-ITX studies, five groups of rats (N=3/group) were anesthetized with ketamine (10-15 mg/rat). The trans ^131 I-ITX was given to four of the five groups (8.9 μCi/rat, i.v.) and biodistribution was studied at 1, 3, 6 and 24 h intervals. In blocking studies, the fifth group of rats was given diethylstilbestrol (DES) (1.2 mg/rat) for 1 h, followed by 8.9 μCi of ^131 I-ITX; biodistribution was studied 6 h later. The tissues were collected at different time intervals. The tissues were weighted and counted for radioactivity. The percent of injected dose per gram of tissue weight was calculated. […]

estrogen receptor [4] = target: T1, estrogen receptor; assay: biochemical
Protocol: as §1, §2, §3

[5] = In vivo tissue uptake in rat (% injected dose per organ, n=5)
[6] = Acute/immediate toxicity following i.v. injection in BALB/c mice; settings: for MTD / Maximum dose tolerated: mouse, in vivo, iv; for Mice died: 20 mg/kg i.v.
Protocol: Acute toxicity studies were performed in BALB/c female mice with doses tested at 20, 50 and 200 mg/kg (i.v., n=5 mice per dose).

CCN(CC)CCOc1ccc(/C(=C(\CCF)c2ccccc2)c2ccccc2)cc1 (single isomer, unassigned) [IV (Cis), N,N-diethyl-fluorotamoxifen]
RBA (relative binding affinity) (estrogen receptor [1]; tamoxifen = 100): 100 | Tumor cell inhibition (in words) (MCF7 cells): effective as inhibiting a breast tumor cell line | Tumor cell inhibition (in words) (MCF7 cells; listed as cis N,N-diethyl-fluoro): more potent than the trans isomers

CC/C(=C(/c1ccccc1)c1ccc(OCCN2CC2)cc1)c1ccccc1 (single isomer, unassigned) [cis isomer of tamoxifen azizidine]
Decrease in estrogen receptor binding affinity (estrogen receptor [2]; versus trans isomer or native tamoxifen): 50 fold

CC/C(=C(\c1ccc(O)cc1)c1ccc(OCCN(C)C)cc1)c1ccccc1 [4-hydroxytamoxifen]
Anti-estrogenic / in vivo activity (in words) [3]: less effective than tamoxifen in vivo

CC/C(=C(\c1ccc(OC)cc1)c1ccc(OCCN(C)C)cc1)c1ccccc1 [4-methoxy phenyl derivative]
Anti-estrogenic / in vivo activity (in words) [3]: about the same as native tamoxifen

CCN(CC)CCOc1ccc(/C(=C(/CCCBr)c2ccccc2)c2ccccc2)cc1 [(XI) BrM (trans), N,N-diethyl-bromomethyltamoxifen]
RBA (IC50 ratio between tamoxifen and competitor) (estrogen receptor [1]): 150 | Enhancement of estrogen receptor binding affinity (estrogen receptor [1]): 50 fold

CCN(CC)CCOc1ccc(/C(=C(/CCCCl)c2ccccc2)c2ccccc2)cc1 [(XII) ClM (trans), N,N-diethyl-chloromethyltamoxifen]
IC50 (estrogen receptor [1]; read-out: IC50 estrogen receptor binding, pig uterus, [3H]estradiol 5 nM): 0.4 µM

CC/C(=C(\c1ccc(Cl)cc1)c1ccc(OCCN(C)C)cc1)c1ccccc1 [Compound 4-chloro]
Anti-estrogenic / in vivo activity (in words) [3]: lower anti-estrogenic activity than tamoxifen | Estrogen receptor binding / detection potency (in words) (estrogen receptor [2]): approximately equal activity for estrogen receptor binding affinity

CC/C(=C(\c1ccc(F)cc1)c1ccc(OCCN(C)C)cc1)c1ccccc1 [Compound 4-fluoro]
Anti-estrogenic / in vivo activity (in words) [3]: lower anti-estrogenic activity than tamoxifen | Estrogen receptor binding / detection potency (in words) (estrogen receptor [2]): approximately equal activity for estrogen receptor binding affinity

CC/C(=C(\c1ccc(I)cc1)c1ccc(OCCN(C)C)cc1)c1ccccc1 [Compound 4-iodo]
Estrogen receptor binding / detection potency (in words) (estrogen receptor [2]): greater potency than tamoxifen

CC/C(=C(\c1ccc(C)cc1)c1ccc(OCCN(C)C)cc1)c1ccccc1 [Compound 4-methyl]
Anti-estrogenic / in vivo activity (in words) [3]: lower anti-estrogenic activity than tamoxifen | Estrogen receptor binding / detection potency (in words) (estrogen receptor [2]): approximately equal activity for estrogen receptor binding affinity

CCN(CC)CCOc1ccc(C(=C(CCCF)c2ccccc2)c2ccccc2)cc1 [Compound VI, N,N-diethyl-fluoromethyltamoxifen]
Tumor cell inhibition (in words) (MCF7 cells): effective as inhibiting a breast tumor cell line

CCN(CC)CCOc1ccc(C(=C(CCCI)c2ccccc2)c2ccccc2)cc1 [Compound X, N,N-diethyl-iodomethyltamoxifen]
Tumor cell inhibition (in words) (MCF7 cells): effective as inhibiting a breast tumor cell line

CCN(CC)CCOc1ccc(C(=C(CCCBr)c2ccccc2)c2ccccc2)cc1 [Compound XI, 1-[4-(2-Diethylaminoethoxy)phenyl]-1,2-diphenyl-5-bromo-1-entene]
Estrogen receptor binding (in words) (estrogen receptor [1]; listed as Bromomethyl tamoxifen): binds to estrogen receptors with greater affinity than the other halogenated tamoxifen analogs tested | Estrogen receptor binding (in words) (estrogen receptor [1]; listed as bromomethyl-Tx): bind to estrogen receptors greater than other halogenated tamoxifens tested | Potency against MCF7 compared with tamoxifen (MCF7 cells): ~25 fold

NCCc1ccc(NC(=O)CN(CCN(CCN(CC(=O)O)CC(=O)O)CC(=O)O)CC(=O)O)cc1 [DTPA, DTPAp-(amino ethyl) anilide, reference compound]
Blood clearance and tumor-to-tissue uptake ratios (in words) (in vivo): faster blood clearance and less tumor-to-tissue uptake ratios

CCN(CC)CCOc1ccc(/C(=C(/CCCO)c2ccccc2)c2ccccc2)cc1 [III (trans), N,N-diethyl-hydroxymethyltamoxifen]
RBA (relative binding affinity) (estrogen receptor [1]; tamoxifen = 100): 400 | RP (relative potency) (MCF7 cells): 50

CCN(CC)CCOc1ccc(/C(=C(/CCF)c2ccccc2)c2ccccc2)cc1 [IV (trans), N,N-diethyl-fluorotamoxifen]
Enhancement of estrogen receptor binding affinity (estrogen receptor [1]): two and a half times

CCN(CC)CCOc1ccc(/C(=C(/CCCN=[N+]=[N-])c2ccccc2)c2ccccc2)cc1 [TX-N3 (trans), Tamoxifen Azide]
RBA (relative binding affinity) (estrogen receptor [1]): 80 | IC50 (estrogen receptor [4]): 38 µM | Ki (estrogen receptor [4]): 18.7 µM

CCN(CC)CCOc1ccc(/C(=C(/CCCN)c2ccccc2)c2ccccc2)cc1 [TX-NH2 (trans), Amino Tamoxifen]
RBA (relative binding affinity) (estrogen receptor [1]; tamoxifen = 100): 10 | IC50 (estrogen receptor [4]): 300 µM | Ki (estrogen receptor [4]): 150 µM

CCN(CC)CCOc1ccc(/C(=C(\CCCF)c2ccccc2)c2ccccc2)cc1 [VI (Cis), N,N-diethyl-fluoromethyltamoxifen]
Potency against MCF7 compared with tamoxifen (MCF7 cells): 3 fold | Tumor cell inhibition (in words) (MCF7 cells): more potent than the trans isomers

CCN(CC)CCOc1ccc(/C(=C(\CCCI)c2ccccc2)c2ccccc2)cc1 [X (cis), N,N-diethyl-iodomethyltamoxifen]
RBA (IC50 ratio between tamoxifen and competitor) (estrogen receptor [1]): 10 | Enhancement of estrogen receptor binding affinity (estrogen receptor [1]): 10 fold | RBA (relative binding affinity) (estrogen receptor [1]; tamoxifen = 100): 1,000 | Tumor cell inhibition (in words) (MCF7 cells): more potent than the trans isomers

CCN(CC)CCOc1ccc(/C(=C(/CCC[131I])c2ccccc2)c2ccccc2)cc1 [^131 I-IMTX (trans)]
Uterus/muscle ratio ([5]; first value (3 h)): 11.0 | Uterus/muscle ratio ([5]; second value (6 h)): 7.6 | Uterus/muscle ratio ([5]; third value (24 h)): 3.6

CCN(CC)CCOc1ccc(/C(=C(\CCCBr)c2ccccc2)c2ccccc2)cc1 [cis-BTX]
MTD [6]: 50 mg/kg

CCN(CC)CCOc1ccc(/C(=C(\CCCCl)c2ccccc2)c2ccccc2)cc1 [cis-CITX, chlorotamoxifen]
MTD [6]: 50 mg/kg

CCN(CC)CCOc1ccc(/C(=C(\CCCI)c2ccccc2)c2ccccc2)cc1 [cis-ITX, iodotamoxifen]
MTD [6]: 50 mg/kg

CCN(CC)CCOc1ccc(/C(=C(/CCCBr)c2ccccc2)c2ccccc2)cc1 [trans-BTX]
MTD [6]: 50 mg/kg

CCN(CC)CCOc1ccc(/C(=C(/CCCI)c2ccccc2)c2ccccc2)cc1 [trans-ITX, iodotamoxifen]
Mice died [6]: 3/4 | Mice died ([6]; listed as trans ITX): 3 out of 4 | Toxicity (in words) ([6]; i.v.): lethal effects of transITX were immediate | MTD [6]: 8 mg/kg

Fluorotamoxifen [(VII) FTX (Cis)]
RP (relative potency) (MCF7 cells): 224

fluorotamoxifen [cis-^18 F-FTX]
Maximum dose tolerated [6]: 50 mg/kg

fluorotamoxifen [trans^18 F-FTX]
Maximum dose tolerated [6]: 200 mg/kg
